Results from patent US20030215888A1, “Androgen receptor overexpressing skeletal myoblasts” (Pfizer Inc., priority 2002, published 2003).
Like-named read-outs stand apart in the source and are kept apart here.

Experiments:
C2hAR57 cells = conditions: for protein content / protein content, percentage difference from vehicle: 3 days in fusion medium
Procedure: Procedure A—Three days in fusion medium. C2hAR57 cells were plated in 12-well tissue culture plates (Costar, Corning, N.Y.) at 4×10^4 cells/well in high mitogen growth medium.

C2C12 cells = conditions: C2C12, addition of DHT, fusion medium
Text: Fusion medium was changed daily. C2hAR57 cells at low density in high mitogen growth medium appeared as small, adherent mononuclear cells.

C[C@]12CCC(=O)C[C@@H]1CC[C@@H]1[C@@H]2CC[C@]2(C)[C@@H](O)CC[C@@H]12 [DHT, dihydrotestosterone]
protein content (C2hAR57 cells; C2hAR57, 0.001 nM DHT): 123 ± 6 micrograms/well
protein content, percentage difference from vehicle (C2hAR57 cells; C2hAR57, 0.001 nM DHT): −1%
protein content (C2hAR57 cells; C2hAR57, 0.01 nM DHT): 127 ± 11 micrograms/well
protein content, percentage difference from vehicle (C2hAR57 cells; C2hAR57, 0.01 nM DHT): +3%
protein content (C2hAR57 cells; C2hAR57, 0.1 nM DHT): 152 ± 2 micrograms/well
protein content, percentage difference from vehicle (C2hAR57 cells; C2hAR57, 0.1 nM DHT): +23%
protein content (C2hAR57 cells; C2hAR57, 1 nM DHT): 188 ± 4 micrograms/well
protein content, percentage difference from vehicle (C2hAR57 cells; C2hAR57, 1 nM DHT): +52%
protein content (C2hAR57 cells; C2hAR57, 10 nM DHT): 199 ± 10 micrograms/well
protein content, percentage difference from vehicle (C2hAR57 cells; C2hAR57, 10 nM DHT): +61%
protein content (C2hAR57 cells; C2hAR57, 100 nM DHT): 200 ± 4 micrograms/well
protein content, percentage difference from vehicle (C2hAR57 cells; C2hAR57, 100 nM DHT): +62%
protein content (C2hAR57 cells; C2hAR57, 1000 nM DHT): 212 ± 3 micrograms/well
protein content, percentage difference from vehicle (C2hAR57 cells; C2hAR57, 1000 nM DHT): +71%
dose-related increase in total protein content (C2hAR57 cells; differentiating C2hAR57 cultures, DHT 10^-12-10^-6 M, Procedure A): up to 71%
rate and extent of myotube formation (C2C12 cells): neither the rate nor the extent of myotube formation in cultures of C2C12 was visibly affected
